Data reported in US20100041710A1, “PENETRATION ENHANCER FOR INSECTICIDES” (priority 2006, published 2010).
Read-outs that look alike come from different tables or passages of the source.

What was measured:
[1] = Experimental: In this test, the penetration of active substances through enzymatically isolated cuticles of apple tree leaves was measured. The cuticles represent all green plant parts, such as leaf blade, petiole, stalk, trunk, hypocotyl and many fruits.
Leaves which were cut off in the stage of full development of apple trees of the Golden Delicious variety were used. The isolation of the cuticles was effected in a manner such that • first, leaf disks marked on the underside with dye and punched out were filled by means of vacuum infiltration with a pectinase solution (0.2 to 2% strength by weight) buffered to a pH between 3 and 4, • sodium azide was then added and • the leaf disks thus treated were allowed to stand until disintegration of the original leaf structure and detachment of the noncellular cuticle.
Thereafter, only those cuticles of the upper sides of the leaves which were free of stomata and hairs were further used. They were washed several times alternately with water and a buffer solution at pH 7. The cleaned cuticles obtained were finally drawn onto small Teflon plates and smoothed and dried with a gentle air jet.
In the next step, the cuticle membranes thus obtained were placed in stainless steel diffusion cells (=transport chambers) for membrane transport investigations. For this purpose, the cuticles were placed by means of forceps centrally on the silicone grease-coated edges of the diffusion cells and closed with a likewise greased ring. The arrangement was chosen so that the morphological outside of the cuticles faced outward, i.e. toward the air, while the original inside faced the interior of the diffusion cell. The diffusion cells were filled with water or with a mixture of water and solvent.
For determining the penetration, in each case 10 μl of a spray liquor of the composition mentioned in the examples were applied to the outside of a cuticle.
In each case the solvents listed below in the table (tap water or a mixture with 20% by weight of acetone/80% by weight of tap water) were used in the spray liquors.
After the application of the spray liquors, in each case the solvent was allowed to evaporate, and in each case the chambers were then turned around and placed in thermostated trays, air having a defined temperature and atmospheric humidity being blown onto the outside of the cuticle. The incipient penetration therefore took place at a relative humidity of 60% and a set temperature of 20 or 25° C. The active substance penetration was measured with radioactively marked active substance.

crop plant = assay: Crop plant tolerance tests; conditions: compared with other alkyl ester additives
[2] = Table 2, 0.3 g/l of active substance, tap water (thiacloprid) or acetone/tap water 20/80% by weight (spirotetramat), 20-25° C., rel. humidity 56-60%, mean of 4-8 repetitions
[3] = Table 1, 0.18 g/l of thiacloprid in tap water, apple leaf cuticles, 20° C., rel. humidity 60%, mean of 4-8 repetitions
[4] = Table 3, 0.1 g/l of imidacloprid in tap water, apple leaf cuticles, 20-25° C., rel. humidity 56-60%, mean of 10 repetitions

CCOC(=O)OC1=C(c2cc(C)ccc2C)C(=O)N[C@]12CC[C@@H](OC)CC2 [spirotetramat, cis-3-(2,5-dimethylphenyl)-8-methoxy-2-oxo-1-azaspiro[4.5]dec-3-en-4-yl ethyl carbonate]
% Penetration after 3 h [1, 2]: 0% | % Penetration after 48 h [1, 2]: 0.3%

N#C/N=C1\SCCN1Cc1ccc(Cl)nc1 [thiacloprid]
% Penetration after 3 h [1, 3]: 0.1% | % Penetration after 24 h [1, 3]: 0.8% | % Penetration after 3 h [1, 2]: 0.1% | % Penetration after 48 h [1, 2]: 1.0%

CCCCOCCOP(=O)(OCCOCCCC)OCCOCCCC [TBEP, tributoxyethyl phosphate]
Crop plant tolerance (crop plant): more tolerant than other alkyl ester additives | Increase in uptake of active substances compared with prior-art penetration enhancers ([1]; summary of table 3 (imidacloprid), versus TBP and TPP): advantageously higher increase in uptake of active substances than the penetration enhancers of the prior art

O=[N+]([O-])NC1=NCCN1Cc1ccc(Cl)nc1 [imidacloprid]
% Penetration after 3 h [1, 4]: 0.3% | % Penetration after 24 h [1, 4]: 0.5%
